Results reported in ChEMBL document CHEMBL1201862, “PubChem BioAssay data set” (2004).
Calls of active or inactive are those of the source.

Legend:
[1] = glucagon-like peptide-1 release potency in STC-1, concentration-response, half-maximal inhibitory concentration in the STC-1 line (AID 1117345); assay type: functional, cell-based
[2] = Potency on glucagon-like peptide 1 release, dose-response in NCI-H716 cell line, half maximal inhibitory concentration (AID 1117344); assay type: functional, cell-based
[3] = target: T1, Estrogen receptor (Homo sapiens, UniProt P03372);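 note: potency for inhibiting coactivator peptide recruitment to the receptor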
T1 sequence (P03372 whole entry): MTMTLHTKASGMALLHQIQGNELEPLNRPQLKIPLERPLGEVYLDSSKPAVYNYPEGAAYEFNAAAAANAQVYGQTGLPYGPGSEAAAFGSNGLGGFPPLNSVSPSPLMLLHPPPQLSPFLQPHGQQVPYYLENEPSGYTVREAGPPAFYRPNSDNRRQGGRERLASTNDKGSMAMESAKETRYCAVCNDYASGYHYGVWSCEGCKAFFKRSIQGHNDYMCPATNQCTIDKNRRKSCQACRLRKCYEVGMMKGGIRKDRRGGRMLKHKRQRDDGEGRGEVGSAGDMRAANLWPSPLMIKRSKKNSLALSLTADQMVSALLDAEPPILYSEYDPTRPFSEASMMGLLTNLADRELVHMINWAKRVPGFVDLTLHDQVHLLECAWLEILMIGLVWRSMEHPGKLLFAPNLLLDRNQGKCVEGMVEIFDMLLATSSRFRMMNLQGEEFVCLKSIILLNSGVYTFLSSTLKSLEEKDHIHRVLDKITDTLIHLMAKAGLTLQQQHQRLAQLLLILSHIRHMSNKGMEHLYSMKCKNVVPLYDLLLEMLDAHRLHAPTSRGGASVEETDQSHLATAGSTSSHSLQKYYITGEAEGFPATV

[4] = blockers of HIV-1 envelope-mediated cell-cell fusion – cherry-pick, dose response (AID 652057); assay type: functional, cell-based
[5] = blockers of HIV-1 ZM109 envelope-driven cell-cell fusion – HeLa effector, CEM target cells, luciferase, cherry-pick, dose response (AID 652058); assay type: functional, cell-based;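 note: luciferase signal from HIV-1 Env mediated cell-cell fusion of effector and target cells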
[6] = off-target signal loss in HeLa-CEM21 co-culture – HeLa F-luc CTL cells, cherry-picked, counter-screen for HIV-1 Env fusion inhibitor project, dose response (AID 652040); assay type: functional, cell-based;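 note: potency for signal decrease marking cytotoxic or nonspecific inhibition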
[7] = HIV-1 AD8 envelope cell-cell fusion blockers – cherry-pick, dose response (AID 652062); assay type: functional, cell-based;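 note: luciferase signal from cell-cell fusion driven by HIV-1 clade B AD8 Env; potency is for inhibitors of fusion seen as a drop in luminescence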
[8] = target: T2, Luciferin 4-monooxygenase (Photinus pyralis, UniProt P08659); assay: Counter Screen for Luciferase-based Assay Positives. [Related pubchem assays: 620, 618, 411 ]
T2 sequence (P08659 whole entry): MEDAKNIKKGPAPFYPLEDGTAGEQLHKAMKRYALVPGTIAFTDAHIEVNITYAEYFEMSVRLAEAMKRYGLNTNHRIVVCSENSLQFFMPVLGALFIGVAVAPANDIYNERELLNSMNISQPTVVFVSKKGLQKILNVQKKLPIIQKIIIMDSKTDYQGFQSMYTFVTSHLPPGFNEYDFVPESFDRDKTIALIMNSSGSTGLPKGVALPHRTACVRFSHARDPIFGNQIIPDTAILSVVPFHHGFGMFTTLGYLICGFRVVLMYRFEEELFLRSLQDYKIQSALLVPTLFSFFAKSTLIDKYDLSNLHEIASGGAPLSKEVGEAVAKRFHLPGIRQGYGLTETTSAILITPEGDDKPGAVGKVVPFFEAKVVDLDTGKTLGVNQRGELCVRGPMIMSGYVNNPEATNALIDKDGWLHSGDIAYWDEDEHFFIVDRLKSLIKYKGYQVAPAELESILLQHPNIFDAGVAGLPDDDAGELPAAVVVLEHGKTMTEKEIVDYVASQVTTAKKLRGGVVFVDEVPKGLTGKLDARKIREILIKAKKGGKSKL

[9] = tested on: HT-1080; assay: HT1080 cell viability loss – fluorescence readout (AID 620); assay type: functional, cell-based; conditions: Homo sapiens
[10] = tested on: HeLa; assay: ATP-based viability loss in HeLa cells – cell-based, CellTiter-Glo luminescence, cherry-pick samples, cytotoxicity control for MITF activator project, dose response (AID 540259); assay type: functional; conditions: Homo sapiens
[11] = target: NAD-dependent protein deacylase sirtuin-5, mitochondrial (Homo sapiens, UniProt Q9NXA8); assay: sirtuin-5 deacylation blockers, concentration series – biochemical, fluorescence imaging, cherry-pick, set 5, dose response (AID 720591);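 note: desuccinylation of succinyl peptide AMC substrate read as fluorescence after trypsin release; potency of inhibitors that lower fluorescence and may act on trypsin instead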
NAD-dependent protein deacylase sirtuin-5, mitochondrial, sequence (Q9NXA8 whole entry): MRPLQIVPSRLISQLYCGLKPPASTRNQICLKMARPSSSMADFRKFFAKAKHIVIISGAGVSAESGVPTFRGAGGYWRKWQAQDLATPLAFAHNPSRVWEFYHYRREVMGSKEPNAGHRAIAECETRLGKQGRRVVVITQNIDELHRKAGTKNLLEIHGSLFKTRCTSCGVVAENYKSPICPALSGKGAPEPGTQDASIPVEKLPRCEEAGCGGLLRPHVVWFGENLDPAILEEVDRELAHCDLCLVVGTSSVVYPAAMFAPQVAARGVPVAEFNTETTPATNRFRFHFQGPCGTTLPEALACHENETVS

[12] = tested on: BJ; assay: BJ-TERT fibroblast viability loss – cell-based, RAS-independent, luminescence, dose response (AID 1933); assay type: functional; conditions: Homo sapiens
[13] = tested on: BJ; assay: cells; assay type: functional, cell-based; conditions: Homo sapiens
[14] = target: T2, Luciferin 4-monooxygenase; assay: inhibition of purified Photinus pyralis luciferase – biochemical, luminescence, dose response (AID 1891)
[15] = Luminescence Cell-Based Dose Confirmation HTS to Identify Inhibitors of Platelet Dense Granule Release. [Related pubchem assays: 1663 (Primary HTS), 1678 (Summary of Project)]; assay type: functional
[16] = tested on: BJ; assay: BJ-TERT-LT-ST fibroblast viability loss – cell-based, RAS-independent, luminescence, dose response (AID 1935); assay type: functional; conditions: Homo sapiens;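 note: BJ fibroblasts immortalized with TERT plus LT and ST oncogenes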
[17] = DRD fibroblast viability loss – cell-based, non-viral oncogenic, luminescence, dose response (AID 1934); assay type: functional; conditions: Homo sapiens
[18] = target: T3, Heat shock factor protein 1 (Mus musculus, UniProt P38532); assay: decrease of HSF1-responsive luciferase luminescence – cell-based, NIH3T3, dose retest, confirmation (AID 2382); assay type: functional;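 note: NIH3T3 fibroblasts with HSF1-driven luciferase reporter stressed by proteasome inhibitor MG132; luminescence from HSF1-driven luciferase expression after 8 hours of MG132 stress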
T3 sequence (P38532 whole entry): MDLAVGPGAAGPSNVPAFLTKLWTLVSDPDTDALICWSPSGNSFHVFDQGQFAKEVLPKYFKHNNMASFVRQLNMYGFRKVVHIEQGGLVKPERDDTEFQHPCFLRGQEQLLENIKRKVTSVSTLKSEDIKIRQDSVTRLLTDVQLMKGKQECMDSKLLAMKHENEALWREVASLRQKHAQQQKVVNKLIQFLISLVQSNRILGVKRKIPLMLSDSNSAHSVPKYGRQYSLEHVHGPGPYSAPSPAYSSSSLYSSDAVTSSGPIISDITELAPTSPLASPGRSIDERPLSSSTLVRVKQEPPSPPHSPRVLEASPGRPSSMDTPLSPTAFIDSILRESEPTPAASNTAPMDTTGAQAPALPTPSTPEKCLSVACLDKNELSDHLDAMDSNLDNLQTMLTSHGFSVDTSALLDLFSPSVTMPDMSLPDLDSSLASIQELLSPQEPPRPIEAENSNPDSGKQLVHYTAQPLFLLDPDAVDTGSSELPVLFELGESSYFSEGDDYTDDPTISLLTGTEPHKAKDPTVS

[19] = target: T4, Acyl-homoserine lactone acylase PvdQ (Pseudomonas aeruginosa (strain LESB58), UniProt Q9I194); assay: PvdQ acylase enzyme activity blockers – biochemical, fluorescence, plate reader and imaging, cherry-picks, dose response (AID 493231)
T4 sequence (Q9I194 whole entry): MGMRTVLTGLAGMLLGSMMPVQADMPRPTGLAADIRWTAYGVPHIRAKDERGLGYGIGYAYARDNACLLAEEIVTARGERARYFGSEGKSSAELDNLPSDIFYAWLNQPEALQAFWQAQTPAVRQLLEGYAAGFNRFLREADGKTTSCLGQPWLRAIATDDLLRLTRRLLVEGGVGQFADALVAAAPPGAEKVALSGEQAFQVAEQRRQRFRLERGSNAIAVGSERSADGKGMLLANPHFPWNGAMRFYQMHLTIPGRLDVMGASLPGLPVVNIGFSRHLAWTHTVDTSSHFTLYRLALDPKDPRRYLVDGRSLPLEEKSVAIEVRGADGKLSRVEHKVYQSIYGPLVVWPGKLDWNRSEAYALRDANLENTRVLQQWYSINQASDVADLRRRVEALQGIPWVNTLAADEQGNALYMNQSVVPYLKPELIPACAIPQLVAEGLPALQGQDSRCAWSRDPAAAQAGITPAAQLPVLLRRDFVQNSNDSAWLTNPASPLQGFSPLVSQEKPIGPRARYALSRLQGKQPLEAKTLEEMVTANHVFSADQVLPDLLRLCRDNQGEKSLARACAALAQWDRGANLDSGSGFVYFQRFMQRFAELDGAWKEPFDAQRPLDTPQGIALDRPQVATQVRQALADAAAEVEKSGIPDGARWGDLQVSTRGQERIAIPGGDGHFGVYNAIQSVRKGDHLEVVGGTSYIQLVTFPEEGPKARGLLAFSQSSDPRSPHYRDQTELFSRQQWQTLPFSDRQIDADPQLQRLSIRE

[20] = target: T5, Protein skinhead-1 (Caenorhabditis elegans, UniProt P34707); assay type: functional
T5 sequence (P34707 whole entry): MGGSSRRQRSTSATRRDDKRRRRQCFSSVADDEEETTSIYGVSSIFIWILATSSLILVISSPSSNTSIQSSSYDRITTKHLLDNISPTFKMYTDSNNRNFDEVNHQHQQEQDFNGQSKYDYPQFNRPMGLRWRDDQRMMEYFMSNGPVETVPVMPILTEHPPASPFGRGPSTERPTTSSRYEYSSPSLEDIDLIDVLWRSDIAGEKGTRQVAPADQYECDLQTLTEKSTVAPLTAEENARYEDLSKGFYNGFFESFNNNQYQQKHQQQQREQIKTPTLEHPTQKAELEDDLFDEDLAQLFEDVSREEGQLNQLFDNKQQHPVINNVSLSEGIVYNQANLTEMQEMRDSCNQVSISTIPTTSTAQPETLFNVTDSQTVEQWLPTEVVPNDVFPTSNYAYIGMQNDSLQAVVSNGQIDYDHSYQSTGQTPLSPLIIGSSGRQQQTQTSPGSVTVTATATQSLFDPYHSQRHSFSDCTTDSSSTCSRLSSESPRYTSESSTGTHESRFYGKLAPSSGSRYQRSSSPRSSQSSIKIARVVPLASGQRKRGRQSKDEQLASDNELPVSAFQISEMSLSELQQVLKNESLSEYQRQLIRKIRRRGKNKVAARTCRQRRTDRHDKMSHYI

[21] = A549 cell cytotoxicity, dose response, cytotoxicity control, plate reader, cherry-pick, antagonist series (AID 743412); assay type: functional, cell-based
[22] = blockers of bursicon-stimulated LGR2 cAMP reporter – cell-based, HEK293, CRE-luciferase reporter, cherry pick, set 2, dose response (AID 743343); assay type: functional;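 note: transfected cells were stimulated with diluted bursicon conditioned medium after compound addition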
[23] = blockade of melanocortin 4 receptor signaling – cell-based, plate reader, cherry pick, counter-screen for LGR2 antagonist project, dose response (AID 743444); assay type: functional;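 note: transfected HEK 293 cells stimulated with alpha-MSH peptide; potency of inhibitors of the alpha-MSH evoked signal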
[24] = viability loss in THP-1 monocytes – THP-1 cells, cytotoxicity control for Vif-APOBEC3G degradation inhibitor project, dose response (AID 1117359); assay type: functional; conditions: THP-1
[25] = viability inhibitors of stage V gametocytes – luminescence, dose response (AID 1117278); assay type: functional, cell-based;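 note: gametocytes exposed to compound for 24 hours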
[26] = viability loss in human Jurkat cells – cell-based, luminescence, cytotoxicity control for P. falciparum gametocyte viability project, dose response (AID 1117277); assay type: functional;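 note: potency reflects loss of cellular ATP meaning fewer viable cells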
[27] = target: T6, RNA-editing ligase 1, mitochondrial (Trypanosoma brucei brucei, UniProt P86926); assay: inhibition of trypanosome RNA editing ligase – biochemical, fluorescence, Trypanosoma brucei, dose response (AID 1117295); assay type: functional
T6 sequence (P86926 whole entry): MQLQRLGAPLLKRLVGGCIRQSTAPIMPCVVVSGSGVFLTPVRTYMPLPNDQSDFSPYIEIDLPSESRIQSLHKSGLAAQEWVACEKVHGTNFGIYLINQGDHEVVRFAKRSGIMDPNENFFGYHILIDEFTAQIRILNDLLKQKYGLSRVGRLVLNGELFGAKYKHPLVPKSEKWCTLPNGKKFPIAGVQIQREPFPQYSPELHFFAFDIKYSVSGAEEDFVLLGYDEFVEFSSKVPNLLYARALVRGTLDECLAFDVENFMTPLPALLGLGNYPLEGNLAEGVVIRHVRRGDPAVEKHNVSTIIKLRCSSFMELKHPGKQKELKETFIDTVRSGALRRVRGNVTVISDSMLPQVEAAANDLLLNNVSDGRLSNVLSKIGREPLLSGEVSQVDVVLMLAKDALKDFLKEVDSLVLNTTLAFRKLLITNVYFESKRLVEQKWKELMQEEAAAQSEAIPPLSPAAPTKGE

[28] = P. falciparum Dd2 growth inhibitors, dose response, SYBR Green, cherry-picked samples (AID 1159567); assay type: functional, cell-based
[29] = toxicity to human hepatoma HepG2 cells – cell-based, cherry-picked samples, cytotoxicity control, dose response (AID 1159577); assay type: functional

CCCCCCCCCCCCOCCOCCOCCOCCOCCOCCOCCOCCOCCO
IC50 [1]: 30.4 µM (inactive)
IC50 [2]: > 40 µM (inactive)

Cc1ccc(C(C(=O)NC(C)(C)C)N(Cc2cccs2)C(=O)c2csnn2)cc1 (stereo not drawn)
IC50 [3]: > 50 µM (not active)
AC50 [4]: 10.2 µM (active)
AC50 [5]: 17.5 µM (active)
AC50 [6]: 22.6 µM (active)
AC50 [7]: 1.67 µM (active)

Cc1ccc(SCc2cn3c(C)csc3n2)cc1
EC50 [8]: < 0.2 µM (active)
EC50 [9]: > 50 µM (not active)
AC50 [10]: 54.9 µM (active)

O=C1NNC(=O)C1c1ccccc1
AC50 [11]: > 30 µM (inactive)

O=C(Nc1ccccn1)c1cc2ccccc2o1
EC50 [12]: 11.2 µM (active)
EC50 [8]: 0.22 µM (active)
EC50 [13]: 16.1 µM (active)
EC50 [14]: 3.03 µM (active)
EC50 [15]: 3.9 µM (active)
EC50 [9]: > 50 µM (not active)
EC50 [16]: > 150 µM (inconclusive)
EC50 [17]: 11.2 µM (active)

CCOc1ccc(-c2cnc3ccccc3n2)cc1
EC50 [18]: 10 µM (active)
AC50 [19]: 97.4 µM (active)
IC50 [20]: > 100 µM (inactive)
AC50 [21]: 30.8 µM (active)
AC50 [22]: 1.77 µM (active)
AC50 [23]: 1.8 µM (active)

CC(C)(C)NC(=O)c1cc(Cl)ccc1[N+](=O)[O-]
AC50 [19]: 11.5 µM (active)

O=C(NNC(=O)c1ccccc1O)c1cc2ccccc2o1
CC50 [24]: 19.2 µM (active)

Cc1cc(N)n2nc(-c3ccccc3)cc2n1
EC50 [8]: 1.04 µM (active)
EC50 [9]: > 50 µM (not active)

COc1ccccc1C(C#N)c1cccc(Cl)n1 (stereo not drawn)
AC50 [19]: 0.85 µM (active)

Cc1cccc(NC(=O)c2csnn2)n1
IC50 [25]: > 109 µM (inactive)
IC50 [26]: > 83.3 µM (inactive)

COc1ccc(C(=O)NCC(=O)N2CCc3ccccc3C2)cc1
IC50 [25]: > 109 µM (inactive)
IC50 [26]: > 83.3 µM (inactive)

CCc1ccc(NC(=O)C[n+]2cc(-c3ccc(C)cc3)n3c2CCC3)cc1
IC50 [27]: > 96.6 µM (inactive)

COCCNC(=O)c1cccc(OC2CCN(Cc3ccc(OC(F)F)cc3)CC2)c1
AC50 [11]: > 30 µM (inactive)

Nc1ccc(Cl)cc1C(=O)c1ccccc1F
IC50 [1]: > 40 µM (inactive)
IC50 [2]: > 40 µM (inactive)

N#Cc1ccc(-c2ccc([C@@H]3[C@@H]4CN(C(=O)Nc5ccc(C(F)(F)F)cc5)C[C@H]3N4)cc2)cc1
AC50 [28]: 5.94 µM (active)
AC50 [29]: 20.5 µM (active)

COC(=O)C1=C(C)N(Cc2ccc(C(F)(F)F)cc2)C(NCC2CC2)=NC1c1ccccc1C(F)(F)F (stereo not drawn)
IC50 [27]: > 96.6 µM (inactive)

COc1ccc2c3c([nH]c2c1)[C@H](CO)N(Cc1ccc(Cl)cc1)CC31CN(Cc2nccs2)C1
AC50 [28]: 4.85 µM (active)
AC50 [29]: 31.9 µM (active)
